Test results published in patent publication US7763584B2, “Hepatitis C virus inhibitors” (priority 2006, dated 2010).

Test system: HCV replicon in HUH-7 cells
Assay: HCV replicon FRET assay (EC50 confirmed in replicon luciferase reporter assay)
Format: cell-based
Conditions: Hepatitis C virus, Huh-7, 96 h
Source text: An HCV replicon whole cell system was established as described by Lohmann V, Korner F, Koch J, Herian U, Theilmann L, Bartenschlager R., Science 285(5424): 110-3 (1999). This system enabled us to evaluate the effects of our HCV Protease compounds on HCV RNA replication. Briefly, using the HCV strain 1b sequence described in the Lohmann paper (Assession number: AJ238799), an HCV cDNA was synthesized by Operon Technologies, Inc. (Alameda, Calif.), and the full-length replicon was then assembled in plasmid pGem9zf(+) (Promega, Madison, Wis.) using standard molecular biology techniques. […]
The HCV replicon FRET assay was developed to monitor the inhibitory effects of compounds described in the disclosure on HCV viral replication. […] After 4 days, cells were first assessed for cytotoxicity using alamar Blue (Trek Diagnotstic Systems) for a CC50 reading. The toxicity of compound (CC50) was determined by adding 1/10th volume of alamar Blue to the media incubating the cells. After 4 h, the fluorescence signal from each well was read, with an excitation wavelength at 530 nm and an emission wavelength of 580 nm, using the Cytofluor Series 4000 (Perspective Biosystems). […]

CO[C@@]1(c2ccc(-c3ccccc3)cc2)C[C@H]2C(=O)N[C@]3(C(=O)NS(=O)(=O)C4CC4)C[C@H]3/C=C\CCCCC[C@H](NC(=O)OC(C)(C)C)C(=O)N2C1 [Compound 1, tert-butyl (2R,6S,13aS,14aR,16aS,Z)-2-(biphenyl-4-yl)-14a-(cyclopropylsulfonylcarbamoyl)-2-methoxy-5,16-dioxo-1,2,3,5,6,7,10,11,13a,14,14a,15,16,16a-hexadecahydrocyclopropa[e]pyrrolo[1,2-a][1,4]diazacyclopentadecin-6-ylcarbamate]
EC50: 5 nM
